For experiment [1], the target named is T1, human muscarinic M3 receptor (Homo sapiens, UniProt P20309).
T1 construct: expressed in transfected cells; host or cells: CHO (CHO-K1) cells
The experiment is described as follows: Cell based potency assessment, hM3 β-lactamase assay (CHO cell β-lactamase). The note with it: CHO cells recombinantly expressing human M3, NFAT-β-lactamase reporter; inhibition of 80 nM carbamyl choline signal, 4 h; IC50 converted by Cheng-Prusoff. How it is done:
Cell BASED POTENCY ASSESSMENT at the Human Recombinant M3 Muscarinic Receptor
M3 potency was determined in CHO-K1 cells transfected with the NFAT-Betalactamase gene. CHO (Chinese Hamster Ovary) cells recombinantly expressing the human muscarinic M3 receptor were transfected with the NFAT_β-Lac_Zeo plasmid. Cells were grown in DMEM with Glutamax-1, supplemented with 25 mM HEPES (Life Technologies 32430-027), containing 10% FCS (Foetal Calf Serum; Sigma F-7524), […] Sodium pyruvate (Sigma S-8636), NEAA (non-Essential Amino Acids; Invitrogen 11140-035) and 200 μg/ml Zeocin (Invitrogen R250-01).
hM3 β-Lactamase Assay Protocol
Cells were harvested for assay when they reached 80-90% confluency using enzyme free cell Dissociation Solution (Life technologies 13151-014) incubated with the cells for 5 min at 37° C. in an atmosphere containing 5% CO2. Detached cells were collected in warmed growth media and centrifuged at 2000 rpm for 10 min, washed in PBS (Phosphate Buffered Saline; Life Technologies 14190-094) and centrifuged again as just described. The cells were re-suspended at 2×10^5 cells/ml in growth medium (composition as described above). 20 μl of this cell suspension was added to each well of a 384 well black clear bottomed plate (Greiner Bio One 781091-PFI). The assay buffer used was PBS supplemented with 0.05% Pluronic F-127 (Sigma 9003-11-6) and 2.5% DMSO. Muscarinic M3 receptor signalling was stimulated using 80 nM carbamyl choline (Aldrich N240-9) incubated with the cells for 4 h at 37° C./5% CO2 and monitored at the end of the incubation period using a Tecan SpectraFluor+plate reader (λ−excitation 405 nm, emission 450 nm and 503 nm). M3 receptor antagonists under test were added to the assay at the beginning of the 4 h incubation period and compound activity measured as the concentration dependent inhibition of the carbamyl choline induced signal. Inhibition curves were plotted and IC50 values generated using a 4-parameter sigmoid fit and converted to Ki values using the Cheng-Prusoff correction and the KD value for carbamyl choline in the assay.

The target of experiment [2] is T1, human muscarinic M3 receptor. The experiment is described as follows: hM3 competition binding assay (3H-NMS, CHO cell membranes). Conditions: CHO cell membranes expressing human M3; 3H-NMS at 5×KD, 24 hr at RT; IC50 corrected by Cheng-Prussoff. How it is done:
Binding Affinity Assessment at the Human Recombinant M3 Muscarinic Receptor
Cell Pellets from CHO (Chinese Hamster Ovary) cells recombinantly expressing the human muscarinic M3 receptor were homogenised in 20 mM HEPES (pH7.4) and centrifuged at 48000×g for 20 min at 4° C. The pellet was re-suspended in buffer and the homogenisation and centrifugation steps repeated. The resulting pellet was re-suspended in 1 ml buffer per 1 ml original packed cell volume and the homogenisation step repeated. Protein estimation was carried out on the suspension and 1 ml aliquots of ˜1 mg/ml frozen at −80° C.
hM3 Competition Binding Assay Protocol
Membranes (5 µg/well) were incubated with ^3H-NMS (at a concentration 5×KD) plus/minus test compound for 24 hr at RT (room temperature) in a 1 ml polystyrene 96-well deep well block. The final assay volume was 200 µl, comprising of: 20 µl plus/minus test compound; 20 µl ^3H-NMS (Perkin Elmer NEN 636) and 160 µl membrane solution. Total Binding was defined with 0.1% DMSO; Non-Specific Binding was defined with 1 µM Atropine. Assay buffer was 20 mM Hepes (pH 7.4).
Once all assay components were added, plates were covered and incubated at room temperature for 24 hrs with shaking. The assay was terminated by rapidly filtering through GF/B Unifilter plates pre-soaked with 0.5% polyethylenimine, using a Packard filtermate harvester, the filter plate was then washed with 3×1 ml 4° C. assay buffer. The filter plates were dried at 45° C. for 1 hour. The bottoms of the filter plates were sealed and 50 µl/well of Microscint ‘0’ added, the top of the plates were sealed with a Topseal. Following 90 mins, the plates were read on an NXT Topcount (1 minute read time per well).
The resulting data was expressed as a percentage of the specific binding (Specific binding=Total binding−Non-Specific Binding). % specific binding versus test compound concentration was plotted to determine an IC50 from a sigmoid curve using an in-house data analysis programme. IC50 values corrected to Ki values by applying the Cheng-Prussoff equation: […]
where IC50 is the concentration of unlabelled drug which inhibits by 50% the specific radioligand binding. [L] is the free radioligand concentrations and KD and Ki are the equilibrium dissociation constants of the radioligand and unlabelled drug respectively.

The structures appear in SMILES notation.

The term Ki denotes the equilibrium dissociation constant of an inhibitor or competing ligand from its target.

T1 sequence (P20309 whole entry): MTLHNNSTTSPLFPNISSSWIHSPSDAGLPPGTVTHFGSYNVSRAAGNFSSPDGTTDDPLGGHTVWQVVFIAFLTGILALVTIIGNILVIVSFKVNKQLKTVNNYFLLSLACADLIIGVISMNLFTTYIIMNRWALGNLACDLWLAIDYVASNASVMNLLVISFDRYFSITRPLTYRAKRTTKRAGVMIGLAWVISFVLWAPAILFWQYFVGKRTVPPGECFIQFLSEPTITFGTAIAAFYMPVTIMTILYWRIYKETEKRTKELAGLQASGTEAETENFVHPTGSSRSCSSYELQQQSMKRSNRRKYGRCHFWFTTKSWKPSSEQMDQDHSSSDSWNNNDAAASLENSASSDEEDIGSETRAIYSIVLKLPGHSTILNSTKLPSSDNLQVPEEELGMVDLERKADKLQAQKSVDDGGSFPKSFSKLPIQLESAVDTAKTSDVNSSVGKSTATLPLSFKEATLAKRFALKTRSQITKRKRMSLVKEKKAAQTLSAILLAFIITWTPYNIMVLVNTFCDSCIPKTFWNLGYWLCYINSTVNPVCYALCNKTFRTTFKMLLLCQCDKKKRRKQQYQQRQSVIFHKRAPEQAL

On to `O=C(Nc1ccccc1-c1ccccc1)OC1CCN(CCCCCCCCCNC(=O)c2ccc(O)c(Cl)c2)CC1` [Example 1, Biphenyl-2-yl-carbamic acid 1-[9-(3-chloro-4-hydroxy-benzoylamino)-nonyl]-piperidin-4-yl ester], for which the Ki in experiment [1] was 0.0697 nM; in experiment [2], 1.6 nM. The matching figures for `O=C(Nc1ccccc1-c1ccccc1)OC1CCN(CCCCCCCCCNCc2cccc(O)c2F)CC1` [Example 2, Biphenyl-2-yl-carbamic acid 1-[9-(2-fluoro-3-hydroxy-benzylamino)-nonyl]-piperidin-4-yl ester]: 0.84 nM and 1.05 nM. `O=C(Nc1ccccc1-c1ccccc1)OC1CCN(CCCCCCCCCNCc2cc(F)cc(Cl)c2O)CC1` [Example 3, Biphenyl-2-yl-carbamic acid 1-[9-(3-chloro-5-fluoro-2-hydroxy-benzylamino)-nonyl]-piperidin-4-yl ester]: the Ki in experiment [1] came to 0.779 nM; in experiment [2], 2.33 nM. As to `O=C(Cc1ccc(O)c(Cl)c1)NCCCCCCCCCN1CCC(OC(=O)Nc2ccccc2-c2ccccc2)CC1` [Example 4, Biphenyl-2-yl-carbamic acid 1-{9-[2-(3-chloro-4-hydroxy-phenyl)-acetylamino]-nonyl}-piperidin-4-yl ester], the Ki in experiment [1] was 0.0415 nM; in experiment [2] it was 1.19 nM. In the case of `O=C(Nc1ccccc1-c1ccccc1)OC1CCN(CCCCCCCCCNCc2cccc(O)c2Cl)CC1` [Example 5, Biphenyl-2-yl-carbamic acid 1-[9-(2-chloro-3-hydroxy-benzylamino)-nonyl]-piperidin-4-yl ester], the inhibitory constant (Ki) worked out at 0.894 nM in experiment [1] and 0.521 nM in experiment [2].

In the case of `O=C(Nc1ccccc1-c1ccccc1)OC1CCN(CCCCCCCCCNC(=O)c2ccc(O)c(F)c2)CC1` [Example 6, Biphenyl-2-yl-carbamic acid 1-[9-(3-fluoro-4-hydroxy-benzoylamino)-nonyl]-piperidin-4-yl ester], the values for the Ki in experiment [1] and in experiment [2] were 0.222 nM and 0.778 nM, respectively. Consider `O=C(Nc1ccccc1-c1ccccc1)OC1CCN(CCCCCCCCCNC(=O)c2ccc(F)c(O)c2)CC1` [Example 7, Biphenyl-2-yl-carbamic acid 1-[9-(4-fluoro-3-hydroxy-benzoylamino)-nonyl]-piperidin-4-yl ester], for which the Ki in experiment [1] was found to be 1.36 nM; in experiment [2], 0.997 nM. As for `O=C(Nc1ccccc1-c1ccccc1)OC1CCN(CCCCCCCCCNC(=O)c2cccc(F)c2O)CC1` [Example 8, Biphenyl-2-yl-carbamic acid 1-[9-(3-fluoro-2-hydroxy-benzoylamino)-nonyl]-piperidin-4-yl ester], the results for the Ki in experiment [1] and in experiment [2] were 2.68 nM and 4.81 nM, respectively. Turning to `O=C(Nc1ccccc1-c1ccccc1)OC1CCN(CCCCCCCCCNC(=O)c2cc(F)ccc2O)CC1` [Example 9, Biphenyl-2-yl-carbamic acid 1-[9-(5-fluoro-2-hydroxy-benzoylamino)-nonyl]-piperidin-4-yl ester], the Ki in experiment [1] came out at 8.81 nM.

`O=C(Cc1ccc(O)c(F)c1)NCCCCCCCCCN1CCC(OC(=O)Nc2ccccc2-c2ccccc2)CC1` [Example 10, Biphenyl-2-yl-carbamic acid 1-{9-[2-(3-fluoro-4-hydroxy-phenyl)-acetylamino]-nonyl}-piperidin-4-yl ester]: the Ki was 0.803 nM in experiment [1] and 1.07 nM in experiment [2]. For the molecule `O=C(Nc1ccccc1-c1ccccc1)OC1CCN(CCCCCCCCCNC(=O)c2cccc(Cl)c2O)CC1` [Example 11, Biphenyl-2-yl-carbamic acid 1-[9-(3-chloro-2-hydroxy-benzoylamino)-nonyl]-piperidin-4-yl ester], the Ki in experiment [1] turned out to be 8.15 nM; in experiment [2] it was 2.24 nM. As to `O=C(Nc1ccccc1-c1ccccc1)OC1CCN(CCCCCCCCCNC(=O)c2ccc(F)c(F)c2O)CC1` [Example 12, Biphenyl-2-yl-carbamic acid 1-[9-(3,4-difluoro-2-hydroxy-benzoylamino)-nonyl]-piperidin-4-yl ester], in experiment [1], the Ki is 7.32 nM. Consider `O=C(Nc1ccccc1-c1ccccc1)OC1CCN(CCCCCCCCCNC(=O)c2cc(Cl)cc(Cl)c2O)CC1` [Example 13, Biphenyl-2-yl-carbamic acid 1-[9-(3,5-dichloro-2-hydroxy-benzoylamino)-nonyl]-piperidin-4-yl ester], for which the Ki in experiment [1] amounted to 18 nM.

For the molecule `O=C(Nc1ccccc1-c1ccccc1)OC1CCN(CCCCCCCCCNC(=O)c2ccc(Cl)cc2O)CC1` [Example 14, Biphenyl-2-yl-carbamic acid 1-[9-(4-chloro-2-hydroxy-benzoylamino)-nonyl]-piperidin-4-yl ester], in experiment [1], the Ki came to 13.9 nM. Regarding `CN(CCCCCCCCCN1CCC(OC(=O)Nc2ccccc2-c2ccccc2)CC1)C(=O)Cc1ccc(O)c(Cl)c1` [Example 15, Biphenyl-2-yl-carbamic acid 1-(9-{[2-(3-chloro-4-hydroxy-phenyl)-acetyl]-methyl-amino}-nonyl)-piperidin-4-yl ester], the Ki in experiment [1] worked out at 0.396 nM; in experiment [2], 2.37 nM.

Regarding `CN(CCCCCCCCCN1CCC(OC(=O)Nc2ccccc2-c2ccccc2)CC1)C(=O)c1ccc(F)c(O)c1` [Example 16, Biphenyl-2-yl-carbamic acid 1-{9-[(4-fluoro-3-hydroxy-benzoyl)-methyl-amino]-nonyl}-piperidin-4-yl ester], the results for the Ki in experiment [1] and in experiment [2] were 0.389 nM and 2.98 nM, respectively. As to `O=C(Nc1ccccc1-c1ccccc1)OC1CCN(CCCCCCCCCNC(=O)c2cc(Cl)ccc2O)CC1` [Example 24, Biphenyl-2-yl-carbamic acid 1-[9-(2-hydroxy-5-chloro-benzoylamino)-nonyl]-piperidin-4-yl ester], the Ki in experiment [1] worked out at 17 nM. Turning to `O=C(Nc1ccccc1-c1ccccc1)OC1CCN(CCCCCCCCCNC(=O)c2ccc(F)cc2O)CC1` [Example 26, Biphenyl-2-yl-carbamic acid 1-[9-(2-hydroxy-4-fluoro-benzoylamino)-nonyl]-piperidin-4-yl ester], the Ki in experiment [1] was found to be 4.51 nM.

`CN(CCCCCCCCCN1CCC(OC(=O)Nc2ccccc2-c2ccccc2)CC1)C(=O)Cc1cccc(O)c1` [Example 66, Biphenyl-2-yl-carbamic acid 1-(9-{[2-(3-hydroxy-phenyl)-acetyl]-methyl-amino}-nonyl)-piperidin-4-yl ester] showed a Ki in experiment [2] of 0.292 nM.

As for `CN(CCCCCCCCCN1CCC(OC(=O)Nc2ccccc2-c2ccccc2)CC1)C(=O)c1cc(F)ccc1O` [Example 67, Biphenyl-2-yl-carbamic acid 1-{9-[(5-fluoro-2-hydroxy-benzoyl)-methyl-amino]-nonyl}-piperidin-4-yl ester], the Ki in experiment [2] was found to be 0.828 nM. Still for that read-out and setting: in the case of `CN(CCCCCCCCCN1CCC(OC(=O)Nc2ccccc2-c2ccccc2)CC1)C(=O)c1cc(Cl)ccc1O` [Example 68, Biphenyl-2-yl-carbamic acid 1-{9-[(5-chloro-2-hydroxy-benzoyl)-methyl-amino]-nonyl}-piperidin-4-yl ester] it was 2.27 nM; in that of `CN(CCCCCCCCCN1CCC(OC(=O)Nc2ccccc2-c2ccccc2)CC1)C(=O)c1ccc(O)c(F)c1` [Example 69, Biphenyl-2-yl-carbamic acid 1-{9-[(3-fluoro-4-hydroxy-benzoyl)-methyl-amino]-nonyl}-piperidin-4-yl ester], 0.615 nM.

The values are drawn from patent US20100016366A1, “Novel Compounds Active as Muscarinic Receptor Antagonists” (priority 2008, published 2010).
